The supplement of paper PMC10307832

How the values were obtained:
Assay in all cases: relative viability (nuclei count vs DMSO), 5 days (fraction); higher = more cells survive
GSK126 + Dasatinib = compound: CC[C@H](C)N1C=C(C2=C(C=C(C=C21)C3=CN=C(C=C3)N4CCNCC4)C(=O)NCC5=C(C=C(NC5=O)C)C)C [GSK126] + Cc1nc(Nc2ncc(C(=O)Nc3c(C)cccc3Cl)s2)cc(N2CCN(CCO)CC2)n1 [Dasatinib] (partner 0.075 µM)
Outline: (§1)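 Dosing by pin tool came one day after lung cancer cell lines were seeded in 1536-well plates, using either one drug or a fixed anchor-drug dose plus five library-drug doses (not always all listed) in √10 steps. After 5 days, nuclei were counted on 4× images. Relative viability is treated-well nuclei count divided by vehicle-well nuclei count, and values are medians of duplicate plates.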

GSK126 + Phenformin = compound: CC[C@H](C)N1C=C(C2=C(C=C(C=C21)C3=CN=C(C=C3)N4CCNCC4)C(=O)NCC5=C(C=C(NC5=O)C)C)C [GSK126] + N=C(N)NC(=N)NCCc1ccccc1 [Phenformin] (partner 250 µM)
Outline: as §1

GSK126 + AZD7762 = compound: CC[C@H](C)N1C=C(C2=C(C=C(C=C21)C3=CN=C(C=C3)N4CCNCC4)C(=O)NCC5=C(C=C(NC5=O)C)C)C [GSK126] + NC(=O)Nc1cc(-c2cccc(F)c2)sc1C(=O)N[C@H]1CCCNC1 [AZD7762] (partner 0.2 µM)
Outline: as §1

MLN4924 + Decitabine = compound: NS(=O)(=O)OC[C@@H]1C[C@@H](n2ccc3c(N[C@H]4CCc5ccccc54)ncnc32)C[C@@H]1O [MLN4924] + Nc1ncn([C@H]2C[C@H](O)[C@@H](CO)O2)c(=O)n1 [Decitabine] (partner 2 µM)
Outline: as §1

Cell Line	relative viability (GSK126 + Dasatinib; first compound 0.08 µM)	relative viability (GSK126 + Dasatinib; first compound 0.253 µM)	relative viability (GSK126 + Dasatinib; first compound 0.8 µM)	relative viability (GSK126 + Dasatinib; first compound 2.53 µM)	relative viability (GSK126 + Dasatinib; first compound 8 µM)	relative viability (GSK126 + Phenformin; first compound 0.08 µM)	relative viability (GSK126 + Phenformin; first compound 0.253 µM)	relative viability (GSK126 + Phenformin; first compound 0.8 µM)	relative viability (GSK126 + Phenformin; first compound 2.53 µM)	relative viability (GSK126 + Phenformin; first compound 8 µM)	relative viability (GSK126 + AZD7762; first compound 0.08 µM)	relative viability (GSK126 + AZD7762; first compound 0.253 µM)	relative viability (GSK126 + AZD7762; first compound 0.8 µM)	relative viability (GSK126 + AZD7762; first compound 2.53 µM)	relative viability (GSK126 + AZD7762; first compound 8 µM)	relative viability (MLN4924 + Decitabine; first compound 0.04 µM)	relative viability (MLN4924 + Decitabine; first compound 0.1265 µM)	relative viability (MLN4924 + Decitabine; first compound 0.4 µM)	relative viability (MLN4924 + Decitabine; first compound 1.265 µM)	relative viability (MLN4924 + Decitabine; first compound 4 µM)
HCC-366	0.77	0.654	0.586	0.696	0.591	0.687	0.641	0.574	0.644	0.543	0.33	0.251	0.201	0.293	0.177	0.335	0.338	0.279	0.164	0.0343
HCC-827	0.333	0.275	0.401	0.396	0.287	0.408	0.385	0.441	0.388	0.411	0.214	0.191	0.24	0.232	0.196	0.336	0.308	0.218	0.15	0.2
HOP-62	0.829	0.583	0.636	0.566	0.595	0.672	0.68	0.672	0.642	0.68	0.67	0.757	0.819	0.528	0.363	0.195	0.201	0.0844	0.0618	0.0785
LC-2-ad	0.606	0.66	0.565	0.643	0.585	0.627	0.634	0.583	0.56	0.642	0.851	0.866	0.858	0.953	0.92	0.791	0.748	0.585	0.508	0.322
LCLC-97TM1	0.845	0.922	0.918	0.822	0.897	0.359	0.459	0.455	0.389	0.374	0.307	0.312	0.228	0.267	0.24	0.188	0.156	0.133	0.0597	0.0565
LCLC-103H	0.485	0.45	0.464	0.447	0.51	0.331	0.383	0.377	0.344	0.39	0.847	0.86	0.786	0.778	0.843	0.807	0.638	0.547	0.261	0.315
LK-2	0.361	0.336	0.196	0.41	0.259	0.658	0.522	0.454	0.334	0.352	0.402	0.364	0.401	0.623	0.293	0.228	0.253	0.216	0.118	0.156
LOU-NH91	0.552	0.609	0.538	0.594	0.567	0.785	0.755	0.692	0.662	0.639	0.789	0.737	0.714	0.822	0.727	0.793	0.797	0.684	0.557	0.523
NCI-H520	0.184	0.172	0.185	0.19	0.238	0.572	0.542	0.561	0.574	0.497	–	–	–	–	–	0.447	0.338	0.249	0.148	0.207
NCI-H661	1.11	0.745	0.755	0.664	0.653	0.277	0.264	0.691	0.269	0.244	–	–	–	–	–	0.587	0.539	0.422	0.281	0.331
NCI-H1563	0.438	0.455	0.461	0.459	0.441	0.665	0.676	0.654	0.596	0.646	–	–	–	–	–	–	–	–	–	–
NCI-H1623	0.529	0.567	0.602	0.482	0.5	0.631	0.594	0.602	0.589	0.537	–	–	–	–	–	–	–	–	–	–
NCI-H1648	–	–	–	–	–	–	–	–	–	–	0.568	0.756	0.73	0.718	0.522	0.572	0.507	0.398	0.305	0.336
NCI-H1650	0.349	0.333	0.284	0.281	0.338	0.531	0.404	0.44	0.361	0.358	–	–	–	–	–	0.371	0.388	0.252	0.175	0.193
NCI-H1703	–	–	–	–	–	–	–	–	–	–	0.115	0.115	0.133	0.118	0.137	–	–	–	–	–
NCI-H2009	0.331	0.261	0.306	0.231	0.296	0.506	0.467	0.442	0.43	0.359	–	–	–	–	–	0.342	0.289	0.218	0.174	0.118
NCI-H2023	0.641	0.566	0.584	0.627	0.661	0.445	0.383	0.373	0.377	0.278	–	–	–	–	–	0.177	0.178	0.119	0.0603	0.062
NCI-H2228	0.597	0.513	0.522	0.562	0.493	0.43	0.295	0.376	0.337	0.365	–	–	–	–	–	–	–	–	–	–
SK-LU-1	0.213	0.231	0.189	0.199	0.173	0.674	0.521	0.553	0.582	0.603	–	–	–	–	–	0.645	0.661	0.309	0.29	0.24
SK-MES-1	0.446	0.47	0.307	0.305	0.373	0.743	0.673	0.635	0.526	0.535	–	–	–	–	–	0.405	0.339	0.233	0.16	0.205
SW 1573	0.709	0.659	0.515	0.479	0.524	0.41	0.4	0.376	0.439	0.423	–	–	–	–	–	0.525	0.313	0.158	0.0741	0.0974
